Data as given in US20240228458A1, “PYRIMIDINE DERIVATIVE HAVING PROTEIN KINASE INHIBITORY ACTIVITY, AND THERAPEUTIC PHARMACEUTICAL COMPOSITION COMPRISING SAME” (THERAPEX CO., LTD., priority 2021, published 2024).

Experiments:
Format in all cases: cell-based
[1] = system: Ba/F3 cells expressing L858R/T790M/C797S (EGFR-LTC); assay: Growth inhibition (GI50) of Ba/F3 cells expressing L858R/T790M/C797S (EGFR-LTC), Celltiter glo; conditions: Mus musculus, BaF3, 72 h
How it was run: (§1)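 Viable-cell luminescence (CellTiter-Glo) after 72 h compound exposure at 37 °C, 5% CO2 gave GI50 (μM, 50% growth inhibition). Compounds were 4-fold serial dilutions, 10 points, from a 2 mM stock, 0.5% DMSO, added 4 h after plating EGFR-variant Ba/F3 cells at 100,000 cells/ml.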

parental Ba/F3 cell line = assay: Growth inhibition (GI50) of the parental Ba/F3 cell line (not introduced with EGFR variants), Celltiter glo; conditions: Mus musculus, BaF3, 72 h, parental Ba/F3 cells
How it was run: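 Viable cell count by CellTiter-Glo after 72 h at 37 °C gave GI50 values (μM, 50% growth inhibition). Cells lacking EGFR variants were seeded at 100,000 cells/ml and dosed 4 h later with 4-fold serial dilutions from a 2 mM stock, 0.5% DMSO.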

[2] = system: Ba/F3 cells expressing del19/T790M/C797S (EGFR-DTC); assay: Growth inhibition (GI50) of Ba/F3 cells expressing del19/T790M/C797S (EGFR-DTC), Celltiter glo; conditions: Mus musculus, BaF3, 72 h
How it was run: as §1

[3] = system: Ba/F3 cells expressing del19/T790M (EGFR-DT); assay: Growth inhibition (GI50) of Ba/F3 cells expressing del19/T790M (EGFR-DT), Celltiter glo; conditions: Mus musculus, BaF3, 72 h
How it was run: as §1

[4] = system: Ba/F3 cells expressing EGFR-wt; assay: Growth inhibition (GI50) of Ba/F3 cells expressing EGFR-wt, Celltiter glo; conditions: Mus musculus, BaF3, 72 h
How it was run: as §1

[5] = system: Ba/F3 cells expressing L858R/T790M (EGFR-LT); assay: Growth inhibition (GI50) of Ba/F3 cells expressing L858R/T790M (EGFR-LT), Celltiter glo; conditions: Mus musculus, BaF3, 72 h
How it was run: as §1

Compound	GI50 [1] [nM]	GI50 [2] [nM]	GI50 [3] [nM]	GI50 [4] [nM]	GI50 [5] [nM]	GI50 (parental Ba/F3 cell line) [nM]
COc1cc(N2CCC(N3CCN(C)CC3)CC2)c(C)cc1Nc1ncc(Cl)c(Nc2cc(Cl)c(F)cc2NS(C)(=O)=O)n1 [Example 176, N-(4-chloro-2-((5-chloro-2-((2-methoxy-5-methyl-4-(4-(4-methylpiperazin-1-yl)piperidin-1-yl)phenyl)amino)pyrimidin-4-yl)amino)-5-fluorophenyl)methanesulfonamide]	1 to 25	1 to 25	25 to 100	100 to 500	25 to 100	500 to 2000
Cc1cc(Nc2ncc(Br)c(Nc3cc(Cl)c(F)cc3NS(C)(=O)=O)n2)c(Cl)cc1N1CCC(N2CCN(C)CC2)CC1 [Example 177, N-(2-((5-bromo-2-((2-chloro-5-methyl-4-(4-(4-methylpiperazin-1-yl)piperidin-1-yl)phenyl)amino)pyrimidin-4-yl)amino)-4-chloro-5-fluorophenyl)methanesulfonamide]	1 to 25	25 to 100	100 to 500	2000 to 10000	100 to 500	2000 to 10000
COc1cc(N2CCC(N3CCN(C)CC3)CC2)c(Cl)cc1Nc1ncc(Br)c(Nc2cc(Cl)c(F)cc2NS(C)(=O)=O)n1 [Example 178, N-(2-((5-bromo-2-((5-chloro-2-methoxy-4-(4-(4-methylpiperazin-1-yl)piperidin-1-yl)phenyl)amino)pyrimidin-4-yl)amino)-4-chloro-5-fluorophenyl)methanesulfonamide]	25 to 100	1 to 25	25 to 100	500 to 2000	25 to 100	2000 to 10000
Cc1cc(Nc2ncc(Cl)c(Nc3cc(Cl)ccc3N(C)S(C)(=O)=O)n2)c(Cl)cc1N1CCC(N2CCC(N(C)C)C2)CC1 (stereo not drawn) [Example 179, N-(4-chloro-2-((5-chloro-2-((2-chloro-4-(4-(3-(dimethylamino)pyrrolidin-1-yl)piperidin-1-yl)-5-methylphenyl)amino)pyrimidin-4-yl)amino)phenyl)-N-methylmethanesulfonamide]	25 to 100	100 to 500	100 to 500	100 to 500	25 to 100	500 to 2000
Cc1cc(Nc2ncc(Cl)c(Nc3cc(Cl)ccc3N(C)S(C)(=O)=O)n2)c(Cl)cc1N1CCC(N2CCCN(C)CC2)CC1 [Example 180, N-(4-chloro-2-((5-chloro-2-((2-chloro-5-methyl-4-(4-(4-methyl-1,4-diazepan-1-yl)piperidin-1-yl)phenyl)amino)pyrimidin-4-yl)amino)phenyl)-N-methylmethanesulfonamide]	25 to 100	25 to 100	25 to 100	500 to 2000	25 to 100	2000 to 10000
COc1cc(N2CCC(N3CCN(C)CC3)CC2)c(Cl)cc1Nc1ncc(Cl)c(Nc2cc(Cl)c(F)cc2NS(C)(=O)=O)n1 [Example 181, N-(4-chloro-2-((5-chloro-2-((5-chloro-2-methoxy-4-(4-(4-methylpiperazin-1-yl)piperidin-1-yl)phenyl)amino)pyrimidin-4-yl)amino)-5-fluorophenyl)methanesulfonamide]	25 to 100	100 to 500	25 to 100	500 to 2000	25 to 100	2000 to 10000
Cc1cc(Nc2ncc(Cl)c(Nc3cc(Cl)c(F)cc3NS(C)(=O)=O)n2)c(Cl)cc1N1CCC(N2CCN(C)CC2)CC1 [Example 182, N-(4-chloro-2-((5-chloro-2-((2-chloro-5-methyl-4-(4-(4-methylpiperazin-1-yl)piperidin-1-yl)phenyl)amino)pyrimidin-4-yl)amino)-5-fluorophenyl)methanesulfonamide]	25 to 100	25 to 100	25 to 100	2000 to 10000	25 to 100	> 10000
COc1cc(N2CCC(N3CCN(C)CC3)CC2)c(Cl)cc1Nc1ncc(Br)c(Nc2cc3c(cc2NS(C)(=O)=O)CCO3)n1 [Example 183, N-(6-((5-bromo-2-((5-chloro-2-methoxy-4-(4-(4-methylpiperazin-1-yl)piperidin-1-yl)phenyl)amino)pyrimidin-4-yl)amino)-2,3-dihydrobenzofuran-5-yl)methanesulfonamide]	1 to 25	1 to 25	1 to 25	1 to 25	1 to 25	25 to 100

The next lines start with results.

GI50 [1] [nM]	GI50 [2] [nM]	GI50 [3] [nM]	GI50 [4] [nM]	GI50 [5] [nM]	Compound	GI50 (parental Ba/F3 cell line) [nM]
1 to 25	100 to 500	1 to 25	25 to 100	1 to 25	CCc1cc(Nc2ncc(Br)c(Nc3cc4c(cc3NS(C)(=O)=O)CCO4)n2)c(OC)cc1N1CCC(N2CCN(C)CC2)CC1 [Example 184, N-(6-((5-bromo-2-((5-ethyl-2-methoxy-4-(4-(4-methylpiperazin-1-yl)piperidin-1-yl)phenyl)amino)pyrimidin-4-yl)amino)-2,3-dihydrobenzofuran-5-yl)methanesulfonamide]	500 to 2000
1 to 25	1 to 25	25 to 100	100 to 500	25 to 100	COc1cc(N2CCC(N3CCCN(C)CC3)CC2)c(C)cc1Nc1ncc(Br)c(Nc2cc3c(cc2NS(C)(=O)=O)CCO3)n1 [Example 188, N-(6-((5-bromo-2-((2-methoxy-5-methyl-4-(4-(4-methyl-1,4-diazepan-1-yl)piperidin-1-yl)phenyl)amino)pyrimidin-4-yl)amino)-2,3-dihydrobenzofuran-5-yl)methanesulfonamide]	500 to 2000
1 to 25	1 to 25	1 to 25	25 to 100	25 to 100	COc1cc(N2CCC(N3CCCN(C)CC3)CC2)c(Cl)cc1Nc1ncc(Br)c(Nc2cc3c(cc2NS(C)(=O)=O)CCO3)n1 [Example 189, N-(6-((5-bromo-2-((5-chloro-2-methoxy-4-(4-(4-methyl-1,4-diazepan-1-yl)piperidin-1-yl)phenyl)amino)pyrimidin-4-yl)amino)-2,3-dihydrobenzofuran-5-yl)methanesulfonamide]	500 to 2000
25 to 100	25 to 100	1 to 25	100 to 500	1 to 25	CCc1cc(Nc2ncc(Cl)c(Nc3ccc4nccnc4c3P(C)(C)=O)n2)c(OC)cc1N1CCC(N2CCN(C)CC2)CC1 [Example 190, (6-((5-chloro-2-((5-ethyl-2-methoxy-4-(4-(4-methylpiperazin-1-yl)piperidin-1-yl)phenyl)amino)pyrimidin-4-yl)amino)quinoxalin-5-yl)dimethylphosphine oxide]	100 to 500
1 to 25	1 to 25	1 to 25	100 to 500	1 to 25	CCc1cc(Nc2ncc(Br)c(Nc3cc(Cl)ccc3NS(C)(=O)=O)n2)c(OC)cc1N1CCC(N2CCN(C)CC2)CC1 [Example 191, N-(2-((5-bromo-2-((5-ethyl-2-methoxy-4-(4-(4-methylpiperazin-1-yl)piperidin-1-yl)phenyl)amino)pyrimidin-4-yl)amino)-4-chlorophenyl)methanesulfonamide]	2000 to 10000
1 to 25	1 to 25	1 to 25	25 to 100	1 to 25	CCc1cc(Nc2ncc(Br)c(Nc3ccc4nccnc4c3P(C)(C)=O)n2)c(OC)cc1N1CCC(N2CCN(C)CC2)CC1 [Example 192, (6-((5-bromo-2-((5-ethyl-2-methoxy-4-(4-(4-methylpiperazin-1-yl)piperidin-1-yl)phenyl)amino)pyrimidin-4-yl)amino)quinoxalin-5-yl)dimethylphosphine oxide]	100 to 500
25 to 100	1 to 25	100 to 500	100 to 500	100 to 500	Cc1cc(Nc2ncc(Br)c(Nc3ccc4nccnc4c3P(C)(C)=O)n2)c(Cl)cc1N1CCC(N2CCN(C)CC2)CC1 [Example 193, (6-((5-bromo-2-((2-chloro-5-methyl-4-(4-(4-methylpiperazin-1-yl)piperidin-1-yl)phenyl)amino)pyrimidin-4-yl)amino)quinoxalin-5-yl)dimethylphosphine oxide]	500 to 2000
25 to 100	25 to 100	25 to 100	100 to 500	100 to 500	COc1cc(N2CCC(N3CCN(C)CC3)CC2)c(Cl)cc1Nc1ncc(Br)c(Nc2ccc3nccnc3c2P(C)(C)=O)n1 [Example 194, (6-((5-bromo-2-((5-chloro-2-methoxy-4-(4-(4-methylpiperazin-1-yl)piperidin-1-yl)phenyl)amino)pyrimidin-4-yl)amino)quinoxalin-5-yl)dimethylphosphine oxide]	100 to 500
100 to 500	1 to 25	1 to 25	500 to 2000	25 to 100	COc1cc(N2CCC(N3CCCC(N(C)C)C3)CC2)c(C)cc1Nc1ncc(Br)c(Nc2cc3c(cc2NS(C)(=O)=O)CCO3)n1 (stereo not drawn) [Example 196, N-(6-((5-bromo-2-((4-(3-(dimethylamino)-[1,4′-bipiperidin]-1′-yl)-2-methoxy-5-methylphenyl)amino)pyrimidin-4-yl)amino)-2,3-dihydrobenzofuran-5-yl)methanesulfonamide]	2000 to 10000
